# Data published in patent US8106055B2, “Substituted amide compounds” (Gruenenthal GmbH, priority 2007, dated 2012).
# Molecular target: T1, bradykinin 1 receptor (B1R) of the rat (Rattus norvegicus, UniProt P97583)
# T1 construct: expressed in transfected cells; host or cells: CHO K1 cells
# T1 sequence (P97583 1-337): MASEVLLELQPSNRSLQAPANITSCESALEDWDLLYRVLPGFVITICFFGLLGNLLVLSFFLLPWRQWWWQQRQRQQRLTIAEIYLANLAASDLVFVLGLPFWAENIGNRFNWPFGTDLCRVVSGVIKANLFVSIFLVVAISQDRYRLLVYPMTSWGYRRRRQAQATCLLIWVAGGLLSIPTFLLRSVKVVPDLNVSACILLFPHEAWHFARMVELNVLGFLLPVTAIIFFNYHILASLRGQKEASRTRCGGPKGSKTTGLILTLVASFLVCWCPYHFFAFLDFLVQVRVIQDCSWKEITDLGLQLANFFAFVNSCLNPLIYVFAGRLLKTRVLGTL
# Experiment: Functional investigation on the rat bradykinin 1 receptor (B1R), Ca2+ FLIPR assay in CHO K1 rB1R cells
# Format: cell-based
# Settings: B1R antagonism rat; test substance 10 μM; Ca2+ FLIPR, CHO K1 rB1R cells
# Summary of the method: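 Peak Ca2+-dependent fluorescence in B1R-transfected CHO K1 cells measures antagonism of an EC80 agonist challenge given 10-20 min after compound. Agonist is Lys-Des-Arg9-bradykinin for human, Des-Arg9-bradykinin for rat receptor.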
row,SMILES,B1R Ant. r [10 μM] % Inhibition
1,COc1ccc(S(=O)(=O)N2CCC(OCC(=O)NCCC3CCC(C(c4ccc(Cl)cc4)N(C)C)CC3)C2)cc1OC (centres unmarked) [Example 338],27%
2,COc1ccc(S(=O)(=O)N(C)CCOCC(=O)NCCC2CCC(C(c3ccc(Cl)cc3)N(C)C)CC2)cc1OC (centres unmarked) [Example 339],31%
3,COc1ccc(S(=O)(=O)N(C)CCOCC(=O)NCC2CCC(C(c3cccc(F)c3)N(C)C)CC2)cc1 (centres unmarked) [Example 340],23%
4,CN(C)C(c1cccs1)C1CCC(NC(=O)COCCN2CCN(S(=O)(=O)c3ccccc3)CC2)CC1 (centres unmarked) [Example 341],18%
5,CN(C)C(c1ccc(F)cc1)C1CCC(CNC(=O)COCCN(Cc2ccccc2)S(=O)(=O)c2ccccc2)CC1 (centres unmarked) [Example 342],−20%
6,CN(C)C(c1ccc(Cl)cc1)C1CCC(CNC(=O)COCCN(Cc2ccccc2)S(=O)(=O)c2ccccc2)CC1 (centres unmarked) [Example 343],−15%
7,CN(C)C(c1ccc(F)cc1)C1CCC(NC(=O)COCC2CCCN2S(=O)(=O)c2ccc(Cl)c(Cl)c2)CC1 (centres unmarked) [Example 344],12%
8,COc1ccc(S(=O)(=O)N2CCCCC2COCC(=O)NCC2CCC(C(c3ccc(F)cc3)N(C)C)CC2)cc1 (centres unmarked) [Example 345],77%
9,COc1ccc(S(=O)(=O)N2CCCC2COCC(=O)NCCC2CCC(C(c3ccc(Cl)cc3)N(C)C)CC2)cc1 (centres unmarked) [Example 346],45%
10,CN(C)C(c1ccc(Cl)cc1)C1CCC(CCNC(=O)COCCN(C)S(=O)(=O)c2ccc(Cl)cc2)CC1 (centres unmarked) [Example 347],56%
11,COc1cc(C)c(S(=O)(=O)N(C)CCOCC(=O)NCC2CCC(C(c3ccc(Cl)cc3)N(C)C)CC2)c(C)c1 (centres unmarked) [Example 348],99%
12,COc1ccc(S(=O)(=O)N2CCCCC2COCC(=O)NCCC2CCC(C(c3ccc(F)cc3)N(C)C)CC2)cc1 (centres unmarked) [Example 349],77%
13,COc1ccc(S(=O)(=O)N2CCCCC2CCOCC(=O)NCC2CCC(C(c3ccc(F)cc3)N(C)C)CC2)cc1 (centres unmarked) [Example 350],35%
14,COc1ccc(S(=O)(=O)N2CCCC2COCC(=O)NCC2CCC(C(c3ccc(Cl)cc3)N(C)C)CC2)cc1 (centres unmarked) [Example 351],34%
15,COc1ccc(S(=O)(=O)N2CCCCC2COCC(=O)NC2CCC(C(c3cccc(F)c3)N(C)C)CC2)cc1OC (centres unmarked) [Example 352],−13%
16,COc1cc(C)c(S(=O)(=O)N(C)CCOCC(=O)NCCC2CCC(C(c3ccc(F)cc3)N(C)C)CC2)c(C)c1C (centres unmarked) [Example 354],44%
17,CN(C)C(c1cccc(F)c1)C1CCC(CNC(=O)COC2CCN(S(=O)(=O)c3ccccc3)C2)CC1 (centres unmarked) [Example 355],28%
18,CN(C)C(c1ccc(F)cc1)C1CCC(NC(=O)COCCN(C)S(=O)(=O)c2ccc(Cl)cc2Cl)CC1 (centres unmarked) [Example 356],43%
19,CN(C)C(c1ccc(F)cc1)C1CCC(NC(=O)COCCN(C)S(=O)(=O)c2ccc(F)cc2)CC1 (centres unmarked) [Example 357],27%
20,COc1cc(C)c(S(=O)(=O)N(CCOCC(=O)NCCC2CCC(C(c3cccc(F)c3)N(C)C)CC2)Cc2ccccc2)c(C)c1 (centres unmarked) [Example 358],27%
21,CN(C)C(c1ccc(F)cc1)C1CCC(CNC(=O)COC2CCCCC2N(C)S(=O)(=O)c2ccc(Cl)c(Cl)c2)CC1 (centres unmarked) [Example 359],−4%
22,CN(C)C(c1ccc(F)cc1)C1CCC(NC(=O)COCCN(C)S(=O)(=O)c2ccc(OC(F)(F)F)cc2)CC1 (centres unmarked) [Example 361],31%
23,Cc1ccc(S(=O)(=O)N(C)CCOCC(=O)NCC2CCC(C(c3ccc(F)cc3)N(C)C)CC2)cc1 (centres unmarked) [Example 362],3%
